Laboratory results: ChEMBL document CHEMBL1201862, “PubChem BioAssay data set” (2004)
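Assay format: 96-well plates, 48-hour exposure. Here, GI50 denotes the concentration required for 50% inhibition of growth.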 The source made the active and inactive calls. Cut-off read from the data, not from the text of the source: active = GI50 up to about 1.1 µM and inactive = higher.

How the values were obtained:
Experiment in all cases: NCI-60 cell line screen, 48 h
A549 = tested on: A549
U-251 = tested on: U-251
SNB-19 = tested on: SNB-19
HOP-92 = tested on: HOP-92
SF-295 = tested on: SF-295
HCT-116 = tested on: HCT-116
TK-10 = tested on: TK-10
RXF 393 = tested on: RXF 393
SNB-75 = tested on: SNB-75
CAKI-1 = tested on: CAKI-1
SR = tested on: SR
SN12C = tested on: SN12C
ACHN = tested on: ACHN
OVCAR-8 = tested on: OVCAR-8
HT-29 = tested on: HT-29
SF-268 = tested on: SF-268
Malme-3M = tested on: Malme-3M
HCC 2998 = tested on: HCC 2998
NCI-H522 = tested on: NCI-H522

Measured: GI50

O=c1[nH]c(=O)n(COCCO)c2ccc(Br)cc12
inactive: A549 > 100 µM | U-251 > 100 µM | SNB-19 50.6 µM | HOP-92 > 100 µM | SF-295 > 100 µM | HCT-116 > 100 µM | TK-10 > 100 µM | RXF 393 > 100 µM | SNB-75 39 µM | CAKI-1 > 100 µM | SR 80.4 µM | SN12C > 100 µM | ACHN > 100 µM | OVCAR-8 > 100 µM | HT-29 > 100 µM

NNC(=O)/C(=C/c1ccc(Cl)cc1Cl)NC(=O)c1ccccc1
inactive: A549 > 100 µM | U-251 > 100 µM | SF-268 > 100 µM | SNB-19 > 100 µM | HOP-92 > 100 µM | SF-295 > 100 µM | HCT-116 > 100 µM | TK-10 > 100 µM | RXF 393 > 100 µM | SNB-75 > 100 µM | CAKI-1 > 100 µM | SR > 100 µM | SN12C > 100 µM | Malme-3M > 100 µM | ACHN > 100 µM | OVCAR-8 > 100 µM | HCC 2998 > 100 µM | HT-29 > 100 µM | NCI-H522 > 100 µM

COC(=O)C1=C(C(=O)OC)N(C(C)C)[C@H]2C(C(=O)OC)=C(C(=O)OC)N(C(C)C)[C@@H]12
inactive: A549 > 100 µM | U-251 > 100 µM | SF-268 > 100 µM | SNB-19 > 100 µM | HOP-92 > 100 µM | SF-295 > 100 µM | HCT-116 > 100 µM | TK-10 > 100 µM | RXF 393 > 100 µM | SNB-75 93.3 µM | CAKI-1 > 100 µM | SR 48 µM | SN12C > 100 µM | Malme-3M > 100 µM | ACHN > 100 µM | OVCAR-8 > 100 µM | HT-29 > 100 µM | NCI-H522 > 100 µM

CCOc1ccccc1N1C(=O)C(=O)C(c2nc3ccccc3o2)C(=O)C1=O
inactive: A549 48.6 µM | U-251 > 100 µM | SF-268 > 100 µM | SNB-19 > 100 µM | HOP-92 > 100 µM | SF-295 20.8 µM | HCT-116 70.5 µM | TK-10 39.7 µM | SNB-75 42.6 µM | CAKI-1 66.8 µM | SR > 100 µM | SN12C 93.8 µM | Malme-3M > 100 µM | ACHN 28.3 µM | OVCAR-8 70.5 µM | HCC 2998 > 100 µM | HT-29 > 100 µM | NCI-H522 > 100 µM

O=C(CC1(O)C(=O)Nc2c(Cl)ccc(Cl)c21)c1ccc2ccccc2c1 (stereo unspecified)
inactive: A549 18.3 µM | U-251 4.76 µM | SF-268 14.5 µM | SNB-19 16.1 µM | SF-295 4.92 µM | HCT-116 11.7 µM | TK-10 16.2 µM | RXF 393 11.6 µM | SNB-75 14.2 µM | CAKI-1 4.46 µM | SR 3.21 µM | SN12C 16.4 µM | Malme-3M 12.5 µM | ACHN 12.9 µM | OVCAR-8 15.5 µM | HCC 2998 13.1 µM | HT-29 2.43 µM | NCI-H522 2.88 µM

[O-][Cl+3]([O-])([O-])[O-].c1ccc(-c2csc3c4ccccc4c4ccccc4[n+]23)cc1
inactive: A549 2.17 µM | U-251 2.45 µM | SF-268 2.34 µM | SNB-19 2.15 µM | HOP-92 4.41 µM | SF-295 1.14 µM | HCT-116 2.32 µM | TK-10 13.6 µM | RXF 393 13 µM | SNB-75 2.35 µM | CAKI-1 7.5 µM | SR 4.99 µM | SN12C 1.65 µM | Malme-3M 1.58 µM | ACHN 10.2 µM | OVCAR-8 2.59 µM | HCC 2998 1.54 µM | HT-29 4.15 µM | NCI-H522 1.67 µM

COc1ccc(/C=C2\N=C3NC(=O)C(N4CCCCC4)=C(N)N3C2=O)cc1
inactive: A549 > 100 µM | U-251 52.8 µM | SF-268 > 100 µM | SNB-19 > 100 µM | HOP-92 > 100 µM | SF-295 73.6 µM | HCT-116 > 100 µM | TK-10 47 µM | RXF 393 > 100 µM | SNB-75 24.8 µM | CAKI-1 > 100 µM | SR > 100 µM | SN12C > 100 µM | Malme-3M > 100 µM | ACHN 70.6 µM | OVCAR-8 > 100 µM | HCC 2998 > 100 µM | HT-29 > 100 µM | NCI-H522 > 100 µM

COc1cc(CCC(=O)NS(=O)(=O)c2ccccc2)cc(OC)c1OC
inactive: A549 > 100 µM | U-251 > 100 µM | SF-268 > 100 µM | SNB-19 > 100 µM | HOP-92 > 100 µM | SF-295 > 100 µM | HCT-116 > 100 µM | TK-10 > 100 µM | RXF 393 > 100 µM | SNB-75 61.4 µM | CAKI-1 > 100 µM | SR > 100 µM | SN12C > 100 µM | Malme-3M > 100 µM | ACHN > 100 µM | OVCAR-8 > 100 µM | HCC 2998 > 100 µM | HT-29 > 100 µM | NCI-H522 > 100 µM

COC1=CC(=O)c2ccc(C(C)C)cc2C1(C)C1=NC(C)(C)CO1 (stereo unspecified)
inactive: A549 > 100 µM | U-251 > 100 µM | SF-268 > 100 µM | SNB-19 > 100 µM | HOP-92 86.7 µM | SF-295 > 100 µM | HCT-116 > 100 µM | TK-10 > 100 µM | RXF 393 > 100 µM | SNB-75 80.5 µM | CAKI-1 > 100 µM | SR 86.3 µM | SN12C > 100 µM | Malme-3M > 100 µM | ACHN > 100 µM | OVCAR-8 > 100 µM | HT-29 > 100 µM | NCI-H522 77.4 µM

COC(=O)C(Cc1nc2ccc(Cl)cc2nc1O)C(=O)C(=O)Nc1cc(C)ccc1C (stereo unspecified)
inactive: A549 > 100 µM | U-251 > 100 µM | SF-268 > 100 µM | SNB-19 > 100 µM | SF-295 > 100 µM | HCT-116 > 100 µM | TK-10 > 100 µM | RXF 393 > 100 µM | SNB-75 > 100 µM | CAKI-1 > 100 µM | SR > 100 µM | SN12C > 100 µM | Malme-3M > 100 µM | ACHN > 100 µM | OVCAR-8 > 100 µM | HCC 2998 > 100 µM | HT-29 > 100 µM | NCI-H522 > 100 µM

O=C(NC12CC3CC(CC(C3)C1)C2)C(=O)c1c[nH]c2ccc(Cl)cc12
inactive: A549 > 100 µM | U-251 56.5 µM | SF-268 49 µM | SNB-19 26.8 µM | HOP-92 22.9 µM | SF-295 11.1 µM | HCT-116 30.1 µM | SNB-75 20.9 µM | SR 54.5 µM | SN12C 56.1 µM | Malme-3M 34.9 µM | ACHN 33.3 µM | HCC 2998 32.9 µM | HT-29 3.97 µM | NCI-H522 85.5 µM
